These results are taken from article PMC3076140 (Journal of medicinal chemistry, 2011).

Assay [1] relates to mouse MC1 and MC3-5 receptors.
Assay [2] relates to melanocortin receptors. To be noted: lactam bridge template; cited from earlier work.

On to “Tyr-c[Cys-His-D-Phe-(R)-MIM(Arg)-Trp-Asn-Ala-Phe-Cys]-Tyr-NH2 [compound 7]”, for which the “MC4R versus MC3R selectivity” value in assay [1] (from EC50 values of Table 2) is listed as 5 fold. In addition, the “agonist efficacy at all the melanocortin receptor isoforms examined” value in assay [1] (mMC1R, mMC3R, mMC4R, mMC5R, maximal efficacy compared to NDP-MSH control) is recorded as “full agonists”.

With “Tyr-c[β-Asp-His-DPhe-Arg-Trp-Asn-Ala-Phe-Dpr]-Tyr-NH2 (sidechain bridge or staple)”, in assay [2], the “agonist activity at the melanocortin receptors” value is recorded as “full agonist at the melanocortin receptors that is as potent as the endogenous α-MSH agonist”.
